Results on 26 compounds are retold here after patent US7132425B2, “5-substituted-six-membered heteroaromatic glucokinase activators” (Hoffmann-La Roche Inc., priority 2002, dated 2006).

In general, melting point refers to the temperature of the solid-liquid transition.

One data set has as its system C57BL/6J mice. The data set can be described thus: Glucokinase activator in vivo screen (blood glucose after oral dosing). The following applies: oral gavage 50 mg/kg after two hour fast, readings 1, 2, 4 and 6 hours post dose, p≦0.05 for two consecutive assay time points. As for the experimental part:
Glucokinase Activator in vivo Screen Protocol: C57BL/6J mice are orally dosed via gavage with Glucokinase (GK) activator at 50 mg/kg body weight following a two hour fasting period. Blood glucose determinations are made five times during the six hour post-dose study period.
Mice (n=6) are weighed and fasted for a two hour period prior to oral treatment.

In the case of `CS(=O)(=O)c1ccc([C@@H](CC2CCCC2)C(=O)Nc2cnc(-c3ccsc3)cn2)cc1Cl` [Example 77, 2(R)-(3-Chloro-4-methanesulfonyl-phenyl)-3-cyclopentyl-N-(5-thiophen-3-yl-pyrazin-2-yl)-propionamide], the melting point fell in the range of 96 to 102 °C.
The compound `CN(C)c1cnc(NC(=O)[C@H](CC2CCCC2)c2ccc(S(C)(=O)=O)c(Cl)c2)cn1` [Example 15, 2(R)-(3-Chloro-4-methylsulfonyl-phenyl)-3-cyclopentyl-N-(5-dimethylamino-pyrazin-2-yl)-propionamide] showed a melting point of 93.3 to 97.7 °C. The “decrease in blood glucose compared to vehicle” value (from here on “decrease in blood glucose”) in the data set with C57BL/6J mice is given as “statistically significant (p≦0.05) decrease in blood glucose”.
In the case of `CSCc1cnc(NC(=O)C(CC2CCCC2)c2ccc(S(C)(=O)=O)c(Cl)c2)cn1` (stereo not drawn) [Example 30, 2-(3-Chloro-4-methanesulfonyl-phenyl)-3-cyclopentyl-N-(5-methylsulfanylmethyl-pyrazin-2-yl)-propionamide], the melting point fell in the range of 70 to 75 °C.
On the same count and under the same terms, the value for `Cc1noc(-c2cnc(NC(=O)[C@H](CC3CCCC3)c3ccc(S(C)(=O)=O)c(Cl)c3)cn2)n1` [Example 35, 2(R)-(3-Chloro-4-methanesulfonyl-phenyl)-3-cyclopentyl-N-[5-(3-methyl-[1,2,4]oxadiazol-5-yl)-pyrazin-2-yl]-propionamide] was 101 to 105 °C; that for `CS(=O)(=O)c1ccc(C(CC2CCCC2)C(=O)Nc2cnc(/C(C#N)=N\O)cn2)cc1Cl` (stereo not drawn) [Example 37, 2-(3-Chloro-4-methanesulfonyl-phenyl)-N-[5-(cyano-hydroxyimino-methyl)-pyrazin-2-yl]-3-cyclopentyl-propionamide] was 130 to 133 °C; that for `CSCc1cnc(NC(=O)[C@H](CC2CCCC2)c2ccc(S(C)(=O)=O)c(Cl)c2)cn1` [Example 36, 2(R)-(3-Chloro-4-methanesulfonyl-phenyl)-3-cyclopentyl-N-(5-methylsulfanylmethyl-pyrazin-2-yl)-propionamide] was 75 to 76.7 °C.
Same read-out and setting: with `CN(C)S(=O)(=O)c1cnc(NC(=O)[C@H](CC2CCCC2)c2ccc(S(C)(=O)=O)c(Cl)c2)cn1` [Example 9, 2(R)-(3-Chloro-4-methanesulfonyl-phenyl)-3-cyclopentyl-N-(5-dimethylsulfamoyl-pyrazin-2-yl)-propionamide] the figure was 100.2 °C.
In the case of `C/C(=N/O)c1cnc(NC(=O)[C@H](CC2CCCC2)c2ccc(S(C)(=O)=O)cc2)cn1` [Example 34, 3-Cyclopentyl-N-[5-(1-hydroxyimino-ethyl)-pyrazin-2-yl]-2(R)-(4-methanesulfonyl-phenyl)-propionamide], the melting point was 118.8 to 122.4 °C. Further, the “decrease in blood glucose” value in the data set on C57BL/6J mice is reported as “statistically significant (p≦0.05) decrease in blood glucose”.
`CS(=O)(=O)Nc1cnc(NC(=O)[C@H](CC2CCCC2)c2ccc(S(C)(=O)=O)c(Cl)c2)cn1` [Example 13, 2(R)-(3-Chloro-4-methanesulfonyl-phenyl)-3-cyclopentyl-N-(5-methanesulfonylamino-pyrazin-2-yl)-propionamide]: the melting point was 108 to 110 °C.
In turn, `CS(=O)(=O)c1ccc([C@@H](CC2CCCC2)C(=O)Nc2cnc(C(=O)NO)cn2)cc1Cl` [Example 29, 5-[2(R)-(3-Chloro-4-methanesulfonyl-phenyl)-3-cyclopentyl-propionylamino]-pyrazine-2-carboxylic acid hydroxyamide] showed a melting point of 134 to 139 °C. The “decrease in blood glucose” value in the data set on C57BL/6J mice is on record as “statistically significant (p≦0.05) decrease in blood glucose”.
On the same counts, the results for `C[S+]([O-])c1cnc(NC(=O)[C@H](CC2CCCC2)c2ccc(S(C)(=O)=O)c(Cl)c2)cn1` (stereo partly drawn) [Example 7, 2(R)-(3-Chloro-4-methanesulfonyl-phenyl)-3-cyclopentyl-N-(5-methanesulfinyl-pyrazin-2-yl)-propionamide] are 88 to 95 °C and “statistically significant (p≦0.05) decrease in blood glucose”.
The compound `CN(C)Cc1cnc(NC(=O)[C@H](CC2CCCC2)c2ccc(S(C)(=O)=O)c(Cl)c2)cn1` [Example 32, 2(R)-(3-Chloro-4-methanesulfonyl-phenyl)-3-cyclopentyl-N-(5-dimethylaminomethyl-pyrazin-2-yl)-propionamide] had a melting point of 88 to 91.5 °C.
On the same count and under the same terms, the value for `CS(=O)(=O)c1ccc([C@@H](CC2CCCC2)C(=O)Nc2cnc(C[C@@H](O)CO)cn2)cc1Cl` [Example 82, 2(R)-(3-chloro-4-methanesulfonyl-phenyl)-3-cyclopentyl-N-[5-(2(R),3-dihydroxy-propyl)-pyrazin-2-yl]-propionamide] was 64 to 69 °C.
`CS(=O)(=O)c1ccc([C@@H](CC2CCCC2)C(=O)Nc2cnc(/C(N)=N\O)cn2)cc1` [Example 3, 3-Cyclopentyl-2(R)-N-[5-(N-hydroxycarbamimidoyl)-pyrazin-2-yl]-2-(4-methanesulfonyl-phenyl)-propionamide]: the melting point was 223 °C (dec.). The “decrease in blood glucose” value with C57BL/6J mice is listed as “statistically significant (p≦0.05) decrease in blood glucose”.
With `CS(=O)(=O)c1ccc([C@@H](CC2CCCC2)C(=O)Nc2cnc(C[C@H](O)CO)cn2)cc1Cl` [Example 81, 2(R)-(3-Chloro-4-methanesulfonyl-phenyl)-3-cyclopentyl-N-[5-(2(S),3-dihydroxy-propyl)-pyrazin-2-yl]-propionamide], the melting point lay in the range of 61 to 65 °C.
Still for that read-out and setting: with `CSc1cnc(NC(=O)[C@H](CC2CCCC2)c2ccc(S(C)(=O)=O)cc2)cn1` [Example 5, 3-Cyclopentyl-2(R)-(4-methanesulfonyl-phenyl)-N-(5-methylsulfanyl-pyrazin-2-yl)-propionamide] the figure was 71 to 77 °C.
Compound `CS(=O)(=O)Nc1ccc(NC(=O)[C@H](CC2CCCC2)c2ccc(S(C)(=O)=O)c(Cl)c2)nc1` [Example 12, 2(R)-(3-Chloro-4-methanesulfonyl-phenyl)-3-cyclopentyl-N-(5-methanesulfonylamino-pyridin-2-yl)-propionamide] displayed a melting point of 146 to 150 °C. Besides, the “decrease in blood glucose” value in the data set with C57BL/6J mice is “statistically significant (p≦0.05) decrease in blood glucose”.
As to `CS(=O)(=O)c1ccc([C@@H](CC2CCCC2)C(=O)Nc2cnc(-c3ccoc3)cn2)cc1Cl` [Example 78, 2(R)-(3-Chloro-4-methanesulfonyl-phenyl)-3-cyclopentyl-N-(5-furan-3-yl-pyrazin-2-yl)-propionamide], the melting point was 97 to 101 °C. In addition, in the data set with C57BL/6J mice, the “decrease in blood glucose” value is given as “statistically significant (p≦0.05) decrease in blood glucose”.
As for `CS(=O)(=O)c1ccc([C@@H](CC2CCCC2)C(=O)Nc2cnc(-c3cccs3)cn2)cc1Cl` [Example 76, 2(R)-(3-Chloro-4-methanesulfonyl-phenyl)-3-cyclopentyl-N-(5-thiophen-2-yl-pyrazin-2-yl)-propionamide], the melting point lay within 97 to 99 °C. The “decrease in blood glucose” value with C57BL/6J mice is on record as “statistically significant (p≦0.05) decrease in blood glucose”.
The corresponding values for `CS(=O)(=O)c1ccc([C@@H](CC2CCCC2)C(=O)Nc2cnc(-c3noc(N)n3)cn2)cc1Cl` [Example 17, N-[5-(5-Amino-[1,2,4]oxadiazol-3-yl)-pyrazin-2-yl]-2(R)-(3-chloro-4-methanesulfonyl-phenyl)-3-cyclopentyl-propionamide] are 262 to 264 °C and “statistically significant (p≦0.05) decrease in blood glucose”.
Compound `CS(=O)(=O)c1ccc([C@@H](CC2CCCC2)C(=O)Nc2cnc(/C(N)=N\O)cn2)cc1Cl` [Example 1, 2(R)-(3-Chloro-4-methanesulfonyl-phenyl)-3-cyclopentyl-N-[5-(N-hydroxycarbamimidoyl)-pyrazin-2-yl]-propionamide] came in with a melting point of 117 to 121 °C. In the data set with C57BL/6J mice, the “decrease in blood glucose” value was “statistically significant (p≦0.05) decrease in blood glucose”.
The compound `CC(=O)c1cnc(NC(=O)[C@H](CC2CCCC2)c2ccc(S(C)(=O)=O)c(Cl)c2)cn1` [Example 39, N-(5-Acetyl-pyrazin-2-yl)-2(R)-(3-chloro-4-methanesulfonyl-phenyl)-3-cyclopentyl-propionamide] gave a melting point of 77 to 80 °C.
For `Cc1nc(-c2cnc(NC(=O)C(CC3CCCC3)c3ccc(S(C)(=O)=O)c(Cl)c3)cn2)no1` (stereo not drawn) [Example 33, 2-(3-Chloro-4-methanesulfonyl-phenyl)-3-cyclopentyl-N-[5-(5-methyl-[1,2,4]oxadiazyl-3-yl)-pyrazin-2-yl]-propionamide], the melting point lay in the range of 101.9 to 104.8 °C.
Same read-out and setting: with `C[S+]([O-])Cc1cnc(NC(=O)[C@H](CC2CCCC2)c2ccc(S(C)(=O)=O)c(Cl)c2)cn1` (stereo partly drawn) [Example 38, 2(R)-(3-Chloro-4-methanesulfonyl-phenyl)-3-cyclopentyl-N-(5-methanesulfinylmethyl-pyrazin-2-yl)-propionamide] the figure was 102 to 106 °C; with `CS(=O)(=O)c1ccc([C@@H](CC2CCCC2)C(=O)Nc2cnc(-c3ccc(C#N)s3)cn2)cc1Cl` [Example 79, 2(R)-(3-Chloro-4-methanesulfonyl-phenyl)-N-[5-(5-cyano-thiophen-2-yl)-pyrazin-2-yl]-3-cyclopentyl-propionamide], 101 to 107 °C; with `CS(=O)(=O)c1ccc([C@@H](CC2CCCC2)C(=O)Nc2cnc(C(CO)CO)cn2)cc1Cl` [Example 40, 2(R)-(3-Chloro-4-methanesulfonyl-phenyl)-3-cyclopentyl-N-[5-(2-hydroxy-1-hydroxymethyl-ethyl)-pyrazin-2-yl]-propionamide], 110 to 120 °C.
